In patent publication US20240360146A1, “BRUTON'S TYROSINE KINASE AND MUTANT DEGRADER, COMPOSITION AND APPLICATION THEREOF” (HANGZHOU HEALZEN THERAPEUTICS CO., LTD., priority 2021, published 2024):

What follows are compounds tested against T1, BTK (Homo sapiens, UniProt Q06187) (assay: BTK degradation activity test in Mino cells). Settings: 16 h incubation, Western blot or Elisa.
T1 construct: endogenous in cells; host or cells: Mino cells
T1 sequence (Q06187 whole entry): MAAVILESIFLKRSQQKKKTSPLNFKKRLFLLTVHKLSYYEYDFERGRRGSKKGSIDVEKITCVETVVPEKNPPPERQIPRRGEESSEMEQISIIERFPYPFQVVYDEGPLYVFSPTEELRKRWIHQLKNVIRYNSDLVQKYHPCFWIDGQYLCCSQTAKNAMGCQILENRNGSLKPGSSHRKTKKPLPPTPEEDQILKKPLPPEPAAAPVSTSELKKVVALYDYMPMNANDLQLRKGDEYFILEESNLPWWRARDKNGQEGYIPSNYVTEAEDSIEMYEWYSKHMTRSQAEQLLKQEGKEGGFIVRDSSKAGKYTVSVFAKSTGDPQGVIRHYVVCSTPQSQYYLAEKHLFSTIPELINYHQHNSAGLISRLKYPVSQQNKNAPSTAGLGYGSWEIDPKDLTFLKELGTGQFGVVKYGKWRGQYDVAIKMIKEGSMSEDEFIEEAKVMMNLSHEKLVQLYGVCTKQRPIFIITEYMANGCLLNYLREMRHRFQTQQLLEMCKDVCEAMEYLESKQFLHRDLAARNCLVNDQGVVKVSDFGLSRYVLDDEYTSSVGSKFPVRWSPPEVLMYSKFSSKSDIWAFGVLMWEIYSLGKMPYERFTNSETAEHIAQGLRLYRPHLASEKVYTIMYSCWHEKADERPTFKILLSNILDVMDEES
Assay type: cell-based
How it was run: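 DC50 derived by curve fitting of BTK degradation rates versus untreated control across compound concentrations. Mino cells were exposed for 16 h; BTK levels in lysates, normalised via BCA protein, measured by Western blot or ELISA.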
A DC50 of less than 1 nM was found for CN1CCN(C2CCCN(c3nnc(C(N)=O)c(Nc4ccc(C5CCN(CC6CCN(c7ccc8c(c7)n(C)c(=O)n8C7CCC(=O)NC7=O)CC6)CC5)cc4)n3)C2)C1=O (centres unmarked) [Compound 088, 5-((4-(1-((1-(1-(2,6-dioxopiperidin-3-yl)-3-methyl-2-oxo-2,3-dihydro-1H-benzo[d]imidazol-5-yl)piperidin-4-yl)methyl)piperidin-4-yl)phenyl)amino)-3-(3-(3-methyl-2-oxoimidazolin-1-yl)piperidin-1-yl)-1,2,4-triazin-6-carboxamide] in this work.
A DC50 greater than 1 nM was found for NC(=O)c1nnc(N2CCCC(N3CCN(C4CCC4)C3=O)C2)nc1Nc1ccc(C2CCN(CC3CCN(c4ccc5c(c4)C(=O)N(C4CCC(=O)NC4=O)C5=O)CC3)CC2)cc1 (centres unmarked) [Compound 059, 3-(3-(3-cyclobutyl-2-oxoimidazolin-1-yl)piperidin-1-yl)-5-((4-(1-((1-(2-(2,6-dioxopiperidin-3-yl)-1,3-dioxoisoindol-5-yl)piperidin-4-yl)methyl)piperidin-4-yl)phenyl)amino)-1,2,4-triazin-6-carboxamide] in this work.
A DC50 of less than 1 nM was found for CN1CCN([C@@H]2CCCN(c3nnc(C(N)=O)c(Nc4ccc(N5CCN(CC6CCN(c7ccc(C(=O)NC8CCC(=O)NC8=O)cn7)CC6)CC5)c(F)c4)n3)C2)C1=O (stereo partly drawn) [Compound 175, 5-((4-(4-((1-(5-((2,6-dioxopiperidin-3-yl)carbamoyl)pyridin-2-yl)piperidin-4-yl)methyl)piperazin-1-yl)-3-fluorophenyl)amino)-3-((R)-3-(3-methyl-2-oxoimidazolidin-1-yl)piperidin-1-yl)-1,2,4-triazin-6-carboxamide] in this work.
A DC50 greater than 1 nM was found for NC(=O)c1ncc(N2CCCC(N3CCN(C4CCCC4)C3=O)C2)nc1Nc1ccc(C2CCN(C3CN(c4ccc5c(c4)C(=O)N(C4CCC(=O)NC4=O)C5=O)C3)CC2)cc1 (centres unmarked) [Compound 027, 5-(3-(3-cyclopentyl-2-oxyimidazolin-1-yl)piperidin-1-yl)-3-((4-(1-(1-(2-(2,6-dioxopiperidin-3-yl)-1,3-dioxoisoindol-5-yl)azetidin-3-yl)piperidin-4-yl)phenyl)amino) pyrazin-2-carboxamide] in this work.
A DC50 of less than 1 nM was found for NC(=O)c1ncc(N2CCCC(N3CCN(C4COC4)C3=O)C2)nc1Nc1ccc(N2CCN(C3CN(c4ccc5c(c4)C(=O)N(C4CCC(=O)NC4=O)C5=O)C3)CC2)cc1 (centres unmarked) [Compound 015, 3-((4-(4-(1-(2-(2,6-dioxopiperidin-3-yl)-1,3-dioxoisoindol-5-yl)azetidin-3-yl)piperazin-1-yl)phenyl)amino)-5-(3-(3-(oxetan-3-yl)-2-oxoimidazolin-1-yl)piperidin-1-yl) pyrazin-2-carboxamide] in this work.
A DC50 of less than 1 nM was found for NC(=O)c1nnc(N2CCCC(N3CCN(C4CCCCC4)C3=O)C2)nc1Nc1ccc(C2CCN(CC3CCN(c4ccc5c(c4)C(=O)N(C4CCC(=O)NC4=O)C5=O)CC3)CC2)cc1 (centres unmarked) [Compound 061, 3-(3-(3-cyclohexyl-2-oxoimidazolin-1-yl)piperidin-1-yl)-5-((4-(1-((1-(2-(2,6-dioxopiperidin-3-yl)-1,3-dioxoisoindol-5-yl)piperidin-4-yl)methyl)piperidin-4-yl)phenyl)amino)-1,2,4-triazin-6-carboxamide] in this work.
A DC50 greater than 1 nM was found for CN1CCN(C2CCCN(c3nc(Nc4ccc(C5(C)CCN(CC6CCN(c7ccc8c(c7)C(=O)N(C7CCC(=O)NC7=O)C8=O)C6)CC5)cc4)c(C(N)=O)cc3F)C2)C1=O (centres unmarked) [Compound 037, 2-((4-(1-((1-(2-(2,6-dioxopiperidin-3-yl)-1,3-dioxoisoindolin-5-yl)pyrrolidin-3-yl)methyl)-4-methylpiperidin-4-yl)phenyl)amino)-5-fluoro-6-(3-(3-methyl-2-oxoimidazolin-1-yl)piperidin-1-yl)nicotinamide] in this work.
A DC50 of less than 1 nM was found for CN1CCN(C2CCCN(c3nnc(C(N)=O)c(Nc4ccc(C5(C)CCN(C6CCN(c7ccc8c(c7)C(=O)N(C7CCC(=O)NC7=O)C8=O)CC6)CC5)cc4)n3)C2)C1=O (centres unmarked) [Compound 078, 5-((4-(1′-(2-(2,6-dioxopiperidin-3-yl)-1,3-dioxoisoindol-5-yl)-4-methyl-[1,4′-bipiperidin]-4-yl)phenyl)amino)-3-(3-(3-methyl-2-oxoimidazolidin-1-yl)piperidin-1-yl)-1,2,4-triazin-6-carboxamide] in this work.
A DC50 of less than 1 nM was found for CN1CCN(C2CCCN(c3nnc(C(N)=O)c(Nc4ccc(C5CCN(CC6CCN(c7ccc8c(c7)C(=O)N(C7CCC(=O)NC7=O)C8)CC6)CC5)cc4)n3)C2)C1=O (centres unmarked) [Compound 086, 5-((4-(1-((1-(2-(2,6-dioxopiperidin-3-yl)-3-oxoisoindol-5-yl)piperidin-4-yl)methyl)piperidin-4-yl)phenyl)amino)-3-(3-(3-methyl-2-oxoimidazolin-1-yl)piperidin-1-yl)-1,2,4-triazin-6-carboxamide] in this work.
A DC50 of less than 1 nM was found for CN1CCN([C@@H]2CCCN(c3nnc(C(N)=O)c(Nc4ccc(N5CCN(C[C@H]6CCN(c7ccc8c(c7)C(=O)N(C7CCC(=O)NC7=O)C8=O)C6)CC5)c(Cl)c4)n3)C2)C1=O (stereo partly drawn) [Compound 160, 5-((3-chloro-4-(4-(((3R)-1-(2-(2,6-dioxopiperidin-3-yl)-1,3-dioxoisoindolin-5-yl)pyrrolidin-3-yl)methyl)piperazin-1-yl)phenyl)amino)-3-((R)-3-(3-methyl-2-oxoimidazolidin-1-yl)piperidin-1-yl)-1,2,4-triazin-6-carboxamide] in this work.
A DC50 of less than 1 nM was found for CN1C(=O)N(C2CCCN(c3cnc(C(N)=O)c(Nc4ccc(C5(C)CCN(C6CN(c7ccc8c(c7)C(=O)N(C7CCC(=O)NC7=O)C8=O)C6)CC5)cc4)n3)C2)C2CCCC21 (centres unmarked) [Compound 008, 3-((4-(1-(1-(2-(2,6-dioxopiperidin-3-yl)-1,3-dioxoisoindol-5-yl)azetidin-3-yl)-4-methylpiperidin-4-yl)phenyl)amino)-5-(3-(3-methyl-2-oxohexahydrocyclopenta[d]imidazol-1(2H)-yl)piperidin-1-yl)pyrazin-2-carboxamide] in this work.
A DC50 of less than 1 nM was found for CN1CCN(C2CCCN(c3ncc(C(N)=O)c(Nc4ccc(C5(C)CCN(CC6CCN(c7ccc8c(c7)C(=O)N(C7CCC(=O)NC7=O)C8=O)C6)CC5)cc4)n3)C2)C1=O (centres unmarked) [Compound 036, 4-((4-(1-((1-(2-(2,6-dioxopiperidin-3-yl)-1,3-dioxoisoindolin-5-yl)pyrrolidin-3-yl)methyl)-4-methylpiperidin-4-yl)phenyl)amino)-2-(3-(3-methyl-2-oxoimidazolin-1-yl)piperidin-1-yl)pyrimidin-5-carboxamide] in this work.
A DC50 greater than 1 nM was found for CN1CCN(C2CC3CCC2N(c2nnc(C(N)=O)c(Nc4ccc(C5CCN(CC6CCN(c7ccc8c(c7)C(=O)N(C7CCC(=O)NC7=O)C8=O)CC6)CC5)cc4)n2)C3)C1=O (centres unmarked) [Compound 075, 5-((4-(1-((1-(2-(2,6-dioxopiperidin-3-yl)-1,3-dioxoisoindol-5-yl)piperidin-4-yl)methyl)piperidin-4-yl)phenyl)amino)-3-(6-(3-methyl-2-oxoimidazolin-1-yl)-2-azabicyclo[2.2.2]octan-2-yl)-1,2,4-triazin-6-carboxamide] in this work.
A DC50 of less than 1 nM was found for NC(=O)c1ncc(N2CCCC(N3CCN(C4CCCC4)C3=O)C2)nc1Nc1ccc(C2CCN(CC3CCN(c4ccc5c(c4)C(=O)N(C4CCC(=O)NC4=O)C5=O)C3)CC2)cc1 (centres unmarked) [Compound 039, 5-(3-(3-cyclopentyl-2-oxoimidazolin-1-yl)piperidin-1-yl)-3-((4-(1-((1-(2-(2,6-dioxopiperidin-3-yl)-1,3-dioxoisoindolin-5-yl)pyrrolidin-3-yl)methyl)piperidin-4-yl)phenyl)amino)pyrazin-2-carboxamide] in this work.
